Assay results as given in patent publication US20160325113A1, “Phototherapy Devices and Methods Comprising Optionally Substituted Quinquiesphenyl Compounds” (NITTO DENKO CORPORATION, priority 2012, published 2016).
Where two headings read alike, the source gives them in different places.

Tests used:
[1] = test system: actinic keratoses lesions; test: Topical photosensitizer plus red OLED illumination of actinic keratoses lesions; details: 20% topical solution; illuminated with red OLED about 14-18 hours after application
Description: About 14-18 hours after application, the treated lesions are illuminated with a red light-emitting OLED device constructed as set forth in Example 2.
The treatment is repeated as needed.
The excess cream is removed with saline, and the lesions are illuminated with the red light-emitting OLED constructed as set forth in Example 2.

[2] = Intravenous verteporphin plus red OLED illumination of the retina, age-related macular degeneration; format: in vivo, person; details: about 6 mg/m^2 i.v.; retina illuminated with red OLED about 15 minutes after start of infusion
Description: Verteporphin is intravenously injected, over a period of about 10 minutes at a rate of about 3 mL/min, to a person suffering from age-related macular degeneration. The verteporphin (7.5 mL of 2 mg/mL reconstituted solution, available as Visudyne® from Novartis) is diluted with 5% dextrose to a volume of 30 mL using a sufficient quantity of the reconstituted verteporphin so that the total dose injected is about 6 mg/m^2 of body surface. About 15 minutes after the start of the 10 minute infusion of verteporphin, the verteporphin is activated by illuminating the retina with a red light-emitting OLED device as set forth in Example 2.

[3] = parameters: species or system person; details: in vivo, iv
[4] = Intravenous verteporphin plus red OLED illumination of the retina, pathological myopia; format: in vivo, person; details: about 6 mg/m^2 i.v.; retina illuminated with red OLED about 15 minutes after start of infusion
Description: Verteporphin is intravenously injected, over a period of about 10 minutes at a rate of about 3 mL/min, to a person suffering from pathological myopia. The verteporphin (7.5 mL of 2 mg/mL reconstituted solution, available as Visudyne® from Novartis) is diluted with 5% dextrose to a volume of 30 mL using a sufficient quantity of the reconstituted verteporphin so that the total dose injected is about 6 mg/m^2 of body surface. About 15 minutes after the start of the 10 minute infusion of verteporphin, the verteporphin is activated by illuminating the retina with a red light-emitting OLED device as set forth in Example 2. […] The treatment is repeated as needed.

Row | Structure (SMILES) | number or severity of the lesions after treatment [1] | patient's vision after treatment [2] | patient's vision after treatment [3] | patient's vision after treatment [4]
1 | Cl.NCC(=O)CCC(=O)O [5-Aminolevulinic acid HCl] | reduced |  |  | 
2 | C=Cc1c(C)c2cc3nc(cc4[nH]c(cc5nc(cc1[nH]2)C(C)=C5CCC(=O)O)c(CCC(=O)OC)c4C)[C@@]1(C)C3=CC=C(C(=O)OC)[C@H]1C(=O)OC [Verteporphin] |  | stabilized | stabilized | stabilized
